Data set [1] in a line: Dynamic vapor sorption (DVS) moisture sorption/desorption. The conditions noted are these: for XRPD pattern after DVS testing: after DVS full cycle. It counts as physicochemical. As to the method: Moisture sorption/desorption data was collected on a DVS Intrinsic (SMS, UK). The sample was placed into a tared sample chamber and automatically weighed. The sample was dried at 40° C. until the dm/dt was less than 0.002% and cooled to 25° C. The instrument parameters were set as detailed below. Step time (min): 60 min; Sample temperature: 25° C.; Cycle: Full cycle; Adsorption: 0, 10, 20, 30, 40, 50, 60, 70, 80, 90; Desorption: 80, 70, 60, 50, 40, 30, 20, 10, 0; Save Data Rate: 5 s; Total flow rate: 200 sccm; Post experiment total flow: 200 sccm.

Data set [2] is described as follows: Solubility testing in biorelevant media (SGF, FaSSIF, FeSSIF) and water, shaken at 37° C. for up to 24 hours. It is filed as physicochemical. As to conditions: for solubility / solubility at 0.5 h: 37 °C, thermodynamic from solid; for solubility / solubility at 0.5 h / Solubility (mg/mL) 0.5 h: 37° C.; for solubility at 0.5 h: read-out: Solubility (mg/mL) 0.5 h; for time until dissolved in each medium: shaking at 37° C., about 15 mg in 3 mL of each of the 4 media. The procedure:
(§1) HPLC analysis was performed with an Agilent HPLC 1260 series instrument.
Compound 1 Form A, Compound 2 Form A and Compound 9 Form A were tested for stability in three biorelevant media and water at 37° C. for 0.5, 2 and 24 hours. About 15 mg of Compound 1 Form A, Compound 2 Form A and Compound 9 Form A were weighted into four separate vials each and to each set of vials was added 3 mL of one of the following biorelevant media: simulated gastric […] fluid (SGF), fasted state simulated intestinal fluid (FaSSIF), fed state simulated intestinal fluid (FeSSIF), and water. All samples were shaken at 200 rpm at 37° C. for up to 24 hours. […] Compound 9 Form A dissolved in each medium after about 15 minutes of shaking at 37° C. Compound 1 Form A dissolved in each medium over the course of about 2 hours of shaking at 37° C. […] The results of the solubility test are summarized below in Table 18: […]

Data set [3] can be described thus: Estimated solubility test: medium added stepwise at rt until the solid dissolved. It is filed as physicochemical. The conditions noted are these: for solubility: thermodynamic from solid. As to the method: As all of the samples dissolved after about 2 hours, estimated solubility testing was conducted, wherein about 5 mg of Compound 1 Form A, Compound 2 Form A and Compound 9 Form A were weighed into four separate vials each and each media was added stepwise while stirring at rt until the solid dissolved.

The nature of data set [4]: Solid stability at 60° C. and 40° C./75%RH for 7 days (purity by HPLC, solid form). It counts as physicochemical. As to conditions: for Purity @ 0 d (Area%): start of solid stability test; for Purity @ 0 d (Area%) / Purity @ 7 d (Area%) 40° C./75%RH / Purity @ 7 d (Area%) 60° C.: HPLC; for Purity @ 7 d (Area%) 40° C./75%RH / Solid form @ 7 d 40° C./75%RH: 7 d at 40° C./75%RH; for Purity @ 7 d (Area%) 60° C. / Solid form @ 7 d 60° C.: 7 d at 60° C. The procedure: as §1
Solid stability of Compound 1 Form A, Compound 2 Form A and Compound 9 Form A were evaluated at 60° C. and 40° C./75%RH for 7 days. Purity was determined via HPLC. […] All tested compounds retained the same solid form after the 7-day experiment.

Data set [5] can be described thus: Blood-brain barrier crossing and accumulation in cerebral spinal fluid (statement, no method given).
The target of data set [6] is β2 adrenergic receptor (Homo sapiens, UniProt P07550). The data set can be described thus: Agonism of the β2 adrenergic receptor (statement, no method given).
The mark [7] stands for this setting: FaSSIF, fassif, FaSSIF, shaken 200 rpm, 2 and 24 h, read-out: Solubility (mg/mL) 2 and 24 h.
The mark [8] stands for this setting: FaSSIF, fassif, FaSSIF, shaken 200 rpm.
The mark [9] stands for this setting: FeSSIF, fessif, FeSSIF, shaken 200 rpm, 2 and 24 h, read-out: Solubility (mg/mL) 2 and 24 h.
Where [10] appears, read: FeSSIF, fessif, FeSSIF, shaken 200 rpm.
The mark [11] stands for this setting: SGF, simulated gastric fluid, SGF, shaken 200 rpm, 2 and 24 h, read-out: Solubility (mg/mL) 2 and 24 h.
Setting [12] is: SGF, simulated gastric fluid, SGF, shaken 200 rpm.
Where [13] appears, read: water, water, Water, shaken 200 rpm, 2 and 24 h, read-out: Solubility (mg/mL) 2 and 24 h.
[14] abbreviates: water, water, Water, shaken 200 rpm.
The mark [15] stands for this setting: SGF, FaSSIF, FeSSIF and water, SGF, FaSSIF, FeSSIF and water, about 15 mg in 3 mL, read-out: solubility in each medium.

Converted amounts (≈) assume the structure as drawn. Read-outs that look alike come from different tables or passages of the source.

The values below come from patent US20230219892A1, “FORMS AND COMPOSITIONS OF A BETA ADRENERGIC AGONIST” (Curasen Therapeutics, Inc., priority 2020, published 2023).

β2 adrenergic receptor, sequence (P07550 whole entry): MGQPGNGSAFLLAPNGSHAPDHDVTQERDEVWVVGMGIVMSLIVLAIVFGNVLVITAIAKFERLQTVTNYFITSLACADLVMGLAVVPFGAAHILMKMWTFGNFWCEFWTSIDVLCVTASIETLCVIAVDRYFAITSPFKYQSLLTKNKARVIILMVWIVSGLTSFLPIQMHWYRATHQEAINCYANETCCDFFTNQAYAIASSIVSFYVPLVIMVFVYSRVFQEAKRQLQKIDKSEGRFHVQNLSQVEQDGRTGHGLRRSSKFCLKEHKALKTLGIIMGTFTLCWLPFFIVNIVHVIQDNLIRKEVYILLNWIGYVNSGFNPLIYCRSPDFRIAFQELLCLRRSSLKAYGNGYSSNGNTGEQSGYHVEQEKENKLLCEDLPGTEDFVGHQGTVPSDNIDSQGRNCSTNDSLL

For the molecule `CC(C)(C)NC[C@H](O)c1cccc(C#N)n1` [Compound 9], the “water uptake at 80%RH” value in data set [1] (DVS, 25° C.) stood at 1.05%. In data set [1], the “XRPD pattern after DVS testing” value was “remained unchanged”. Besides, the solubility in data set [2] (setting [7]), in data set [2] (setting [9]), in data set [2] (setting [11]) and in data set [2] (setting [13]) was greater than 5 mg/mL in each case. Besides, the solubility at 0.5 h in data set [2] (setting [8]), in data set [2] (setting [10]), in data set [2] (setting [12]) and in data set [2] (setting [14]) was greater than 5 mg/mL in each case. The “pH 24 h” value in data set [2] (pH of solubility sample in FaSSIF at 24 h (control 6.53), listed as Compound 9 Form A) came out at 6.51; in data set [2] (pH of solubility sample in FeSSIF at 24 h (control 5.01), listed as Compound 9 Form A) it was 5.01; in data set [2] (pH of solubility sample in SGF at 24 h (control 1.19), listed as Compound 9 Form A), 1.18; in data set [2] (pH of solubility sample in water at 24 h (control 5.26), listed as Compound 9 Form A), 5.68. In data set [2] (listed as Compound 9 Form A), the “time until dissolved in each medium” value is recorded as “About 15 minutes”. Besides, in data set [3] (FaSSIF, listed as Compound 9 Form A), the “Solubility (mg/mL) FaSSIF” value is reported as greater than 71.4 mg/mL. Further, the “Solubility (mg/mL) FeSSIF” value in data set [3] (FeSSIF, listed as Compound 9 Form A) is greater than 101.4 mg/mL. The “Solubility (mg/mL) SGF” value in data set [3] (SGF, listed as Compound 9 Form A) is greater than 71.4 mg/mL. Moreover, the “Solubility (mg/mL) Water” value in data set [3] (water, listed as Compound 9 Form A) was greater than 71.3 mg/mL. Besides, the “Purity @ 0 d (Area%)” value in data set [4] (listed as Compound 9 Form A) was 98.62% Area%. Moreover, the “Purity @ 7 d (Area%) 40° C./75%RH” value in data set [4] (listed as Compound 9 Form A) was found to be 98.49% Area%. In data set [4] (listed as Compound 9 Form A), the “Purity @ 7 d (Area%) 60° C.” value amounted to 98.62% Area%.

With `CC(C)(C)NC[C@H](O)c1cccc(C#N)n1.Cc1ccc(S(=O)(=O)O)cc1` [Compound 5], in data set [1] (DVS, 25° C.), the “water uptake at 80%RH” value amounted to 1.25%. Besides, the “water uptake at 90%RH” value in data set [1] (DVS, 25° C., 90%RH) was 2.77%. For the same molecule, in data set [1], the “XRPD pattern after DVS testing” value is “remained unchanged”.

Consider `CC(C)(C)NC[C@H](O)c1cccc(C#N)n1.Cl` [Compound 2], for which, in data set [1] (DVS, 25° C.), the “water uptake at 80%RH” value is 0.58%. The “XRPD pattern after DVS testing” value in data set [1] was “remained unchanged”. In addition, the solubility was greater than 5 mg/mL in data set [2] (setting [7]); greater than 5 mg/mL in data set [2] (setting [9]); greater than 5 mg/mL in data set [2] (setting [11]); greater than 5 mg/mL in data set [2] (setting [15]); greater than 5 mg/mL in data set [2] (setting [13]); greater than 100 mg/mL in data set [3] (FaSSIF, FaSSIF, read-out: Solubility (mg/mL) FaSSIF). Also, the solubility in data set [3] (FeSSIF, FeSSIF, read-out: Solubility (mg/mL) FeSSIF) was greater than 100 mg/mL; in data set [3] (SGF, simulated gastric fluid, SGF, read-out: Solubility (mg/mL) SGF), greater than 101 mg/mL; in data set [3] (water, water, read-out: Solubility (mg/mL) Water) it was greater than 102 mg/mL. In addition, the solubility at 0.5 h in data set [2] (setting [8]), in data set [2] (setting [10]), in data set [2] (setting [12]) and in data set [2] (setting [14]) was greater than 5 mg/mL each time. In data set [2] (at rt, about 15 mg in 3 mL), the “dissolution in each of the 4 media” value is listed as “dissolved immediately”. The “pH 24 h” value in data set [2] (pH of solubility sample in FaSSIF at 24 h (control 6.53)) stood at 6.47; in data set [2] (pH of solubility sample in FeSSIF at 24 h (control 5.01)) it was 5.01; in data set [2] (pH of solubility sample in SGF at 24 h (control 1.19)), 1.11; in data set [2] (pH of solubility sample in water at 24 h (control 5.26)), 5.24. For the same molecule, the “Purity @ 0 d (Area%)” value in data set [4] was 99.27% Area%. Further, the “Solid form @ 7 d 40° C./75%RH” value in data set [4] is on record as “unchanged”. Besides, in data set [4], the “Purity @ 7 d (Area%) 40° C./75%RH” value turned out to be 99.27% Area%. The “Solid form @ 7 d 60° C.” value in data set [4] was “unchanged”. In addition, in data set [4], the “Purity @ 7 d (Area%) 60° C.” value came to 99.25% Area%.

With `CC(C)(C)NC[C@H](O)c1cccc(C#N)n1` [Compound 1, (S)-6-(2-(tert-butylamino)-1-hydroxyethyl)picolinonitrile], the “Solubility (mg/mL) 0.5 h” value in data set [2] (FaSSIF, shaken 200 rpm, listed as Compound 1 Form A) was determined as 4.33 mg/mL (≈ 19.7 mM); in data set [2] (FeSSIF, shaken 200 rpm, listed as Compound 1 Form A) it was 4.41 mg/mL (≈ 20.1 mM); in data set [2] (SGF, shaken 200 rpm, listed as Compound 1 Form A), 4.76 mg/mL (≈ 21.7 mM); in data set [2] (Water, shaken 200 rpm, listed as Compound 1 Form A), 4.19 mg/mL (≈ 19.1 mM). Further, the solubility in data set [2] (setting [15]) is greater than 5 mg/mL. Besides, the “pH 24 h” value is on record as 8.03 in data set [2] (pH of solubility sample in FaSSIF at 24 h (control 6.53), listed as Compound 1 Form A); 5.52 in data set [2] (pH of solubility sample in FeSSIF at 24 h (control 5.01), listed as Compound 1 Form A); 1.20 in data set [2] (pH of solubility sample in SGF at 24 h (control 1.19), listed as Compound 1 Form A); 10.35 in data set [2] (pH of solubility sample in water at 24 h (control 5.26), listed as Compound 1 Form A). In addition, the “time until dissolved in each medium” value in data set [2] (listed as Compound 1 Form A) is “about 2 hours”. For the same molecule, the “ability to cross the blood-brain barrier and accumulate in the cerebral spinal fluid” value in data set [5] is reported as “unexpectedly high ability to cross the blood-brain barrier”. In data set [3] (FaSSIF, listed as Compound 1 Form A), the “Solubility (mg/mL) FaSSIF” value is listed as roughly 6.3 mg/mL (≈ 28.7 mM). In addition, the “Solubility (mg/mL) FeSSIF” value in data set [3] (FeSSIF, listed as Compound 1 Form A) is listed as roughly 9.1 mg/mL (≈ 41.5 mM). Further, the “Solubility (mg/mL) SGF” value in data set [3] (SGF, listed as Compound 1 Form A) was roughly 12.7 mg/mL (≈ 57.9 mM). Besides, the “Solubility (mg/mL) Water” value in data set [3] (water, listed as Compound 1 Form A) is listed as roughly 5.0 mg/mL (≈ 22.8 mM). Further, the “Purity @ 0 d (Area%)” value in data set [4] (listed as Compound 1 Form A) is 96.09% Area%. Further, the decrease in purity in data set [4] (7 d, under both sets of conditions (60° C. and 40° C./75%RH)) is reported as ~ 0.3%. In addition, the “Solid form @ 7 d 40° C./75%RH” value in data set [4] was “unchanged”. The “Purity @ 7 d (Area%) 40° C./75%RH” value in data set [4] (listed as Compound 1 Form A) stood at 95.78% Area%. In addition, the “Solid form @ 7 d 60° C.” value in data set [4] is listed as “unchanged”. Besides, in data set [4] (listed as Compound 1 Form A), the “Purity @ 7 d (Area%) 60° C.” value is 95.76% Area%. The “activity at the β2 adrenergic receptor” value in data set [6] is listed as “low concentration partial agonist”.
